Test results as given in US10435361B2, “Kinase inhibitors” (Topivert Pharma Limited, priority 2013, dated 2019).

System: PBMCs
Experiment: LPS-induced TNFα/IL-8 release in PBMC cells
Assay type: cell-based
Details: Homo sapiens, assay (b), read-out: IC50 Values for Inhibition of Cytokine Release PBMCs IL-8
Protocol: Peripheral blood mononuclear cells (PBMCs) from healthy subjects are separated from whole blood using a density gradient (Lymphoprep, Axis-Shield Healthcare). The PBMCs are seeded in 96 well plates and treated with compounds at the desired concentration for 2 hours before addition of 1 ng/mL LPS (Escherichia Coli 0111:B4 from Sigma Aldrich) for 24 hours under normal tissue culture conditions (37° C., 5% CO2). The supernatant is harvested for determination of IL-8 and TNFα concentrations by sandwich ELISA (Duo-set, R&D systems) and read on the fluorescence microplate reader (Varioskan® Flash, ThermoFisher Scientific).

| SMILES | IC50 [nM] |
| --- | --- |
| COc1cc(Nc2cc(Oc3ccc(NC(=O)Nc4cc(C(C)(C)C)cc(NS(C)(=O)=O)c4OC)c4ccccc34)ccn2)cc(C(=O)NCCN2CCCC2)c1 [83(d), 3-((4-((4-(3-(5-(tert-butyl)-2-methoxy-3-(methylsulfonamido)phenyl)ureido)naphthalen-1-yl)oxy)pyridin-2-yl)amino)-5-methoxy-N-(2-(pyrrolidin-1-yl)ethyl)benzamide] | 12.1 |
| COc1cc(Nc2cc(Oc3ccc(NC(=O)Nc4cc(C(C)(C)C)cc(NS(C)(=O)=O)c4OC)c4ccccc34)ccn2)cc(C(=O)NCCN2CCCCC2)c1 [83(e), 3-((4-((4-(3-(5-(tert-butyl)-2-methoxy-3-(methylsulfonamido)phenyl)ureido)naphthalen-1-yl)oxy)pyridin-2-yl)amino)-5-methoxy-N-(2-(piperidin-1-yl)ethyl)benzamide] | 8 |
| COc1c(NC(=O)Nc2ccc(Oc3ccnc(Nc4ccccc4)c3)c3ccccc23)cc(C(C)(C)C)cc1NS(=O)(=O)N1CCOCC1 [83(f), N-(5-(tert-butyl)-2-methoxy-3-(3-(4-((2-(phenylamino)pyridin-4-yl)oxy)naphthalen-1-yl)ureido)phenyl)morpholine-4-sulfonamide] | 13.1 |
| COCCOCCOCCOc1cc(Nc2cc(Oc3ccc(NC(=O)Nc4cc(C(C)(C)C)cc(C(=O)NCCN)c4OC)c4ccccc34)ccn2)cc(OC)c1 [83(g), N-(2-aminoethyl)-5-(tert-butyl)-2-methoxy-3-(3-(4-((2-((3-methoxy-5-(2-(2-(2-methoxy-ethoxy)ethoxy)ethoxy)phenyl)amino)pyridin-4-yl)oxy)naphthalen-1-yl)ureido)benzamide] | 7.3 |
| COc1c(NC(=O)Nc2ccc(Oc3ccnc(Nc4ccccc4)c3)c3ccccc23)cc(C(C)(C)C)cc1C(=O)NC1CCOCC1 [84(a), 3-[[4-[(2-Anilino-4-pyridyl)oxy]-1-naphthyl]carbamoylamino]-5-tert-butyl-2-methoxy-N-tetrahydropyran-4-yl-benzamide] | 12.4 |
| COc1c(NC(=O)Nc2ccc(Oc3ccnc(Nc4ccccc4)c3)c3ccccc23)cc(C(C)(C)C)cc1C(=O)NC1CCN(C)CC1 [84(b), 3-[[4-[(2-Anilino-4-pyridyl)oxy]-1-naphthyl]carbamoylamino]-5-tert-butyl-2-methoxy-N-(1-methyl-4-piperidyl)benzamide] | 9.1 |
| COc1c(NC(=O)Nc2ccc(Oc3ccnc(Nc4ccccc4)c3)c3ccccc23)cc(C(C)(C)C)cc1C(=O)N[C@@H]1CCOC1 [84(c), 3-[[4-[(2-Anilino-4-pyridyl)oxy]-1-naphthyl]carbamoylamino]-5-tert-butyl-2-methoxy-N-[(3R)-tetrahydrofuran-3-yl]benzamide] | 21.8 |
| COc1cc(Nc2cc(Oc3ccc(NC(=O)Nc4cc(C(C)(C)C)cc(NS(C)(=O)=O)c4OC)c4ccccc34)ccn2)cc(OCCOCCOCCO)c1 [84(e), 1-[5-tert-Butyl-3-(methanesulfonamido)-2-methoxy-phenyl]-3-[4-[[2-[3-[2-[2-(2-hydroxyethoxy)ethoxy]ethoxy]-5-methoxy-anilino]-4-pyridyl]oxy]-1-naphthyl]urea] | 1.3 |
| COc1cc(CO)cc(Nc2cc(Oc3ccc(NC(=O)Nc4cc(C(C)(C)C)cc(NS(C)(=O)=O)c4OC)c4ccccc34)ccn2)c1 [84(f), 1-[5-tert-Butyl-3-(methanesulfonamido)-2-methoxyphenyl]-3-[4-[[2-[3-(hydroxymethyl)-5-methoxyanilino]-4-pyridyl]oxy]-naphthyl]urea] | 13.5 |
| C#Cc1cc(Nc2cc(Oc3ccc(NC(=O)Nc4cc(C(C)(C)C)cc(NS(C)(=O)=O)c4OC)c4ccccc34)ccn2)cc(C(=O)NCCN2CCN(C)CC2)c1 [85(c), 3-[[4-[[4-[[5-tert-Butyl-3-(methanesulfonamido)-2-methoxyphenyl]-carbamoylaminol]-1-naphthyl]oxy]-2-pyridyl]amino]-5-ethynyl-N-[2-(4-methylpiperazin-1-yl)ethyl]benzamide] | 4.6 |
| COc1cc(Nc2nccc(Oc3ccc(NC(=O)Nc4cc(C(C)(C)C)cc(NS(C)(=O)=O)c4OC)c4ccccc34)n2)cc(C(=O)NCCN2CCN(C)CC2)c1 [85(e), 3-[[4-[[4-[[5-tert-Butyl-3-(methanesulfonamido)-2-methoxyphenyl]-carbamoylamino]-1-naphthyl]oxy]pyrimidin-2-yl]amino]-5-methoxy-N-[2-(4-methylpiperazin-1-yl)ethyl]benzamide] | 1.7 |
| COc1cc(Nc2nccc(Oc3ccc(NC(=O)Nc4cc(C(C)(C)C)cc(NS(C)(=O)=O)c4OC)c4ccccc34)n2)cc(C(=O)NCCCN2CCOCC2)c1 [85(f), 3-[[4-[[4-[[5-tert-Butyl-3-(methanesulfonamido)-2-methoxyphenyl]-carbamoylamino]-1-naphthyl]oxy]pyrimidin-2-yl]amino]-5-methoxy-N-(3-morpholinopropyl)-benzamide] | 0.7 |
| C#Cc1cc(Nc2nccc(Oc3ccc(NC(=O)Nc4cc(C(C)(C)C)cc(C(N)=O)c4OC)c4ccccc34)n2)cc(C(=O)NCCN2CCOCC2)c1 [85(g), 5-tert-Butyl-3-[[4-[2-[3-ethynyl-5-(2-morpholinoethylcarbamoyl)anilino]-pyrimidin-4-yl]oxy-1-naphthyl]carbamoylamino]-2-methoxy-benzamide] | 1 |
| COc1cc(Nc2cc(Oc3ccc(NC(=O)Nc4cc(C(C)(C)C)cc(NS(C)(=O)=O)c4OC)c4ccccc34)ccn2)cc(C(=O)NCCN2CCSCC2)c1 [85(i), 3-[[4-[[4-[[5-tert-Butyl-3-(methanesulfonamido)-2-methoxyphenyl]-carbamoylamino]-1-naphthyl]oxy]-2-pyridyl]amino]-5-methoxy-N-(2-thiomorpholinoethyl)-benzamide] | 1.5 |
| COc1cc(Nc2cc(Oc3ccc(NC(=O)Nc4cc(C(C)(C)C)cc(NS(C)(=O)=O)c4OC)c4ccccc34)ccn2)cc(C(=O)NCCN2CC[S+]([O-])CC2)c1 [85(j), 3-[[4-[[4-[[5-tert-Butyl-3-(methanesulfonamido)-2-methoxyphenyl]-carbamoylamino]-1-naphthyl]oxy]-2-pyridyl]amino]-5-methoxy-N-[2-(1-oxo-1,4-thiazinan-4-yl)ethyl]benzamide] | 2.1 |
| COc1cc(Nc2cc(Oc3ccc(NC(=O)Nc4cc(C(C)(C)C)cc(NS(C)(=O)=O)c4OC)c4ccccc34)ccn2)cc(C(=O)NCCN2CCOCC2(C)C)c1 [85(l), 3-[[4-[[4-[[5-tert-Butyl-3-(methanesulfonamido)-2-methoxyphenyl]-carbamoylamino]-1-naphthyl]oxy]-2-pyridyl]amino]-N-[2-(3,3-dimethylmorpholin-4-yl)ethyl]-5-methoxybenzamide] | 2.8 |
| COc1cc(Nc2cc(Oc3ccc(NC(=O)Nc4cc(C(C)(C)C)cc(NS(C)(=O)=O)c4OC)c4ccccc34)ccn2)cc(C(=O)NCCN2CCCN(C)CC2)c1 [85(p), 3-[[4-[[4-[[5-tert-Butyl-3-(methanesulfonamido)-2-methoxyphenyl]-carbamoylamino]-1-naphthyl]oxy]-2-pyridyl]amino]-5-methoxy-N-[2-(4-methyl-1,4-diazepan-1-yl)ethyl]benzamide] | 7.1 |
| COc1cc(Nc2cc(Oc3ccc(NC(=O)Nc4cc(C(C)(C)C)cc(NS(C)(=O)=O)c4OC)c4ccccc34)ccn2)cc(C(=O)NCCN2CCNCC2)c1 [85(q), 3-[[4-[[4-[[5-tert-Butyl-3-(methanesulfonamido)-2-methoxyphenyl]-carbamoylamino]-1-naphthyl]oxy]-2-pyridyl]amino]-5-methoxy-N-(2-piperazin-1-ylethyl)benzamide] | 6.1 |
